In brackets after ≈: the same amount, converted by molar mass. Square brackets hold non-standard residues; d marks the D form. Peptide text beside a SMILES is read from it. Nspe = C[C@H](NCC(=O)O)c1ccccc1; Nlys = NCCCCNCC(=O)O
What was measured:
erythrocytes = test: Hemolytic activity (HD10/HD50); format: cell-based
Excerpt: Table 1 Characteristics of antimicrobial peptoids, screened for activity against B. subtilis and E. coli bacterial strains. | column: HD10 / HD50

NIH 3T3 cells = test: Metabolic activity, MTS assay; format: cell-based, mouse
Method: NIH 3T3 mouse fibroblast cells were cultured in complete Dulbecco’s Modified Eagle’s Media. A peptoid solution plate (100 µL per well) was prepared by serial dilution of aqueous peptoid stock solutions in Hank’s balanced salt solution. A day-old cell monolayer was washed thoroughly with Hank’s balanced salt solution and replenished with 100 µL Hank’s balanced salt solution per well. Peptoid solutions were transferred onto the day-old cell monolayers, which contained approximately 5000 cells per well. […] The average of six replicate trials is reported.

E. faecalis F43559 (VRE) = test: microbe, parasite or virus in culture; conditions: F43559 (VRE)
Method: (§1) The MICs of test agents were measured using a modified broth micro-dilution method in Difco Mueller Hinton medium, on a panel of bacterial pathogens that were both susceptible and resistant to common antibiotics (S1 File). Briefly, serial dilutions were performed in 0.01% acetic acid containing 0.2% bovine serum albumin at 10-fold the desired final concentration. Ten μL of the 10-fold concentrated test reagents were added to each well of a 96-well polypropylene microtitre plate containing 90 μL of Mueller Hinton media per well. Bacteria were added to the plate from an overnight culture at a final concentration of 2–7 x 10^5 CFU/mL and incubated overnight at 37°C. The MIC is defined as the concentration at which no growth was observed.
(§2) Screening of peptoid antimicrobial activity against a panel of multidrug resistant superbugs was done according to the protocol described in the manuscript. The bacterial strains used in this panel included; P. aeruginosa PAO1 strain H103 [1], P. maltophilia ATCC#13637, S. aureus ATCC#25923 [1], E. faecalis ATCC#29212 [2], and E. cloacae 218R, constitutively expressing Class C chromosomal β-lactamase, were from the Hancock lab strains collection. An MRSA clinical isolate was kindly provided by Anthony Chow (Vancouver General Hospital, Vancouver, Canada). Two Klebsiella pneumoniae and two E. coli clinical isolates expressing extended spectrum β-lactamases (ESBL) were kindly provided by George Zhanel (Health Sciences Centre, Winnipeg, Canada). Vancomycin-resistant clinical isolates of Enterococcus faecalis and E. faecium were obtained from Ana M. Paccagnella (BC Centre for Disease Control, Vancouver, Canada). Three clinical isolates (#9, #198 and #213) of multi-drug resistant P. aeruginosa, were kindly provided by Carlos Kiffer (University of São Paulo, Brazil). […] Three P. aeruginosa clinical isolates of the Liverpool epidemic strain (LES) (H1027, H1030 and LES400) were all kindly provided by Craig Winstanley (University of Liverpool, UK). […] All tested bacterial strains were categorized as biohazard level 2 pathogens.

[1] = tested on: K. pneumonia 61962 (ESBL); test: microbe, parasite or virus in culture
Method: as §1, §2

E. faecium T62764 (VRE) = test: microbe, parasite or virus in culture; conditions: T62764 (VRE)
Method: as §1, §2

E. faecium mic80 (VRE) = test: microbe, parasite or virus in culture; conditions: mic80 (VRE)
Method: as §1, §2

P. aeruginosa 198 (MDR) = test: microbe, parasite or virus in culture; conditions: 198 (MDR)
Method: as §1, §2

E. faecalis W61950 (VRE) = test: microbe, parasite or virus in culture; conditions: W61950 (VRE)
Method: as §1, §2

E. coli 63103 (ESBL) = test: microbe, parasite or virus in culture; conditions: 63103 (ESBL)
Method: as §1, §2

E. coli ATCC 35218 = format: cell-based
Method: MICs against B. subtilis and E. coli screening bacterial strains were determined using serial dilution in 96-well microtiter plates in accordance with CLSI M7-A6 protocols. Briefly, peptoid solution in cation-adjusted Mueller-Hinton broth was prepared by 2:1 serial dilution with a total volume of 50 µL per well. In experimental wells, 50 µL of bacterial inoculums (1 x 10^6 CFU/mL) were added to the peptoid solutions. Positive controls consisted of 50 µL inoculums added to 50 µL cation-adjusted Mueller-Hinton broth containing no peptoid, while negative controls contained only cation-adjusted Mueller-Hinton broth. […] Experiments were reproducible among three independent replicates, each consisting of two parallel trials.

E. coli 64771 (ESBL) = test: microbe, parasite or virus in culture; conditions: 64771 (ESBL)
Method: as §1, §2

[2] = tested on: P. aeruginosa H1030 (MDR); test: microbe, parasite or virus in culture; conditions: P. aeruginosa H1030 (MDR)
Method: as §1, §2

[3] = tested on: P. aeruginosa H1027 (MDR); test: microbe, parasite or virus in culture; conditions: H1027 (MDR)
Method: as §1, §2

E. faecalis ATCC29212 = test: microbe, parasite or virus in culture; conditions: ATCC29212
Method: as §1, §2

P. maltophilia ATCC13637 = test: microbe, parasite or virus in culture; conditions: ATCC13637
Method: as §1, §2

S. aureus ATCC25923 = test: microbe, parasite or virus in culture; conditions: ATCC25923
Method: as §1, §2

P. aeruginosa 213 (MDR) = test: microbe, parasite or virus in culture; conditions: 213 (MDR)
Method: as §1, §2

S. aureus C623 (MRSA) = test: microbe, parasite or virus in culture; conditions: C623
Method: as §1, §2

[4] = tested on: P. aeruginosa H103 (wild type); test: microbe, parasite or virus in culture; conditions: H103 (wild type)
Method: as §1, §2

P. aeruginosa 9 (MDR) = test: microbe, parasite or virus in culture; conditions: 9 (MDR)
Method: as §1, §2

[5] = tested on: P. aeruginosa LES400 (MDR); test: microbe, parasite or virus in culture; conditions: LES400 (MDR)
Method: as §1, §2

[6] = tested on: E. cloacae 218R Class C β-lactamase; test: microbe, parasite or virus in culture; conditions: 218R Class C β-lactamase
Method: as §1, §2

[7] = tested on: K. pneumonia 63575 (ESBL); test: microbe, parasite or virus in culture
Method: as §1, §2

| SMILES | HD10 (hemolytic activity) (erythrocytes) | HD50 (hemolytic activity) (erythrocytes) | ID50 (inhibitory dose, metabolic activity) (NIH 3T3 cells) [µM] | MIC (E. faecalis F43559 (VRE)) [µg/mL] | MIC [1] [µg/mL] | MIC (E. faecium T62764 (VRE)) [µg/mL] | MIC (E. faecium mic80 (VRE)) [µg/mL] | MIC (P. aeruginosa 198 (MDR)) [µg/mL] | MIC (E. faecalis W61950 (VRE)) [µg/mL] | MIC (E. coli 63103 (ESBL)) [µg/mL] | MIC E. coli (E. coli ATCC 35218) [µM] | MIC (E. coli 64771 (ESBL)) [µg/mL] | MIC [2] [µg/mL] | MIC [3] [µg/mL] | MIC (E. faecalis ATCC29212) [µg/mL] | MIC (P. maltophilia ATCC13637) [µg/mL] | MIC (S. aureus ATCC25923) [µg/mL] | MIC (P. aeruginosa 213 (MDR)) [µg/mL] | MIC (S. aureus C623 (MRSA)) [µg/mL] | MIC [4] [µg/mL] | other results |
| --- | --- | --- | --- | --- | --- | --- | --- | --- | --- | --- | --- | --- | --- | --- | --- | --- | --- | --- | --- | --- | --- |
| C[C@H](NCC(=O)N(CCCCN)CC(=O)N(CC(=O)N(CCCCN)CC(=O)N(CCCCN)CC(=O)N(CCCCN)CC(=O)N(CC(=O)N(CCCCN)CC(=O)N(CC(=O)N(CCCCN)CC(=O)N(CCCCN)CC(=O)N(CC(=O)N(CC(=O)N(CCCCN)CC(=O)N(CC(N)=O)[C@@H](C)c1ccccc1)[C@@H](C)c1ccccc1)[C@@H](C)c1ccccc1)[C@@H](C)c1ccccc1)[C@@H](C)c1ccccc1)[C@@H](C)c1ccccc1)c1ccccc1 [1B15mer-NLys4,6,10, H-(Nspe-NLys)2-NLys2-(Nspe-NLys)2-NLys-Nspe2-NLys-Nspe-NH2] (H-[Nspe][Nlys][Nspe][Nlys][Nlys][Nlys][Nspe][Nlys][Nspe][Nlys][Nlys][Nspe][Nspe][Nlys][Nspe]-NH2) | >200 / >200 | >200 / >200 | 40 | – | – | – | – | – | – | – | – | – | – | – | – | – | – | – | – | – | – |
| C[C@H](NCC(=O)N(CCCCN)CC(=O)N(CC(=O)N(CCCCN)CC(=O)N(CCCCN)CC(=O)N(CC(=O)N(CC(=O)N(CCCCN)CC(=O)N(CC(=O)N(CCCCN)CC(=O)N(CCCCN)CC(=O)N(CC(=O)N(CC(=O)N(CCCCN)CC(=O)N(CC(N)=O)[C@@H](C)c1ccccc1)[C@@H](C)c1ccccc1)[C@@H](C)c1ccccc1)[C@@H](C)c1ccccc1)[C@@H](C)c1ccccc1)[C@@H](C)c1ccccc1)[C@@H](C)c1ccccc1)c1ccccc1 [1B15mer-NLys4,10, H-(Nspe-NLys-Nspe-NLys-NLys-Nspe)2-Nspe-NLys-Nspe-NH2] (H-[Nspe][Nlys][Nspe][Nlys][Nlys][Nspe][Nspe][Nlys][Nspe][Nlys][Nlys][Nspe][Nspe][Nlys][Nspe]-NH2) | >200 / >200 | >200 / >200 | 16 | 256 (≈ 116 µM) | 256 (≈ 116 µM) | 4 (≈ 1.81 µM) | 32 (≈ 14.5 µM) | 16 (≈ 7.26 µM) | 128 (≈ 58.1 µM) | 256 (≈ 116 µM) | – | – | – | – | – | – | – | – | – | – | – |
| C[C@@H](c1ccccc1)N(CC(N)=O)C(=O)CN(C(=O)CN(CCCCN)C(=O)CN(C(=O)CN(C(=O)CN(CCCCN)C(=O)CN(C(=O)CN(C(=O)CN(CCCCN)C(=O)[C@@H]1CCCN1C(=O)CN(C(=O)CNCCCCN)[C@@H](C)c1ccccc1)[C@@H](C)c1ccccc1)[C@@H](C)c1ccccc1)[C@@H](C)c1ccccc1)[C@@H](C)c1ccccc1)[C@@H](C)c1ccccc1 [Peptoid 1-Pro3, H-NLys-Nspe-L-Pro-(NLys-Nspe-Nspe)3-NH2] (H-[Nlys][Nspe]P[Nlys][Nspe][Nspe][Nlys][Nspe][Nspe][Nlys][Nspe][Nspe]-NH2) | 74 | > 200 | – | 8 (≈ 4.56 µM) | 32 (≈ 18.2 µM) | 2 (≈ 1.14 µM) | 4 (≈ 2.28 µM) | 16 (≈ 9.12 µM) | 16 (≈ 9.12 µM) | 16 (≈ 9.12 µM) | 12.5 (≈ 21.9 µg/mL) | 8 (≈ 4.56 µM) | 16 (≈ 9.12 µM) | 2 (≈ 1.14 µM) | 8 (≈ 4.56 µM) | 1 (≈ 0.57 µM) | 4 (≈ 2.28 µM) | 8 (≈ 4.56 µM) | 4 (≈ 2.28 µM) | 8 (≈ 4.56 µM) | MIC (P. aeruginosa 9 (MDR)): 128 µg/mL (≈ 72.9 µM); MIC [5]: 8 µg/mL (≈ 4.56 µM); MIC [6]: 16 µg/mL (≈ 9.12 µM); MIC [7]: 32 µg/mL (≈ 18.2 µM) |
| C[C@@H](c1ccccc1)N(CC(N)=O)C(=O)CN(C(=O)CN(CCCCN)C(=O)[C@@H]1CCCN1C(=O)CN(C(=O)CN(CCCCN)C(=O)CN(C(=O)CN(C(=O)CN(CCCCN)C(=O)CN(C(=O)CN(C(=O)CNCCCCN)[C@@H](C)c1ccccc1)[C@@H](C)c1ccccc1)[C@@H](C)c1ccccc1)[C@@H](C)c1ccccc1)[C@@H](C)c1ccccc1)[C@@H](C)c1ccccc1 [Peptoid 1-Pro9, H-(NLys-Nspe2)2-NLys-Nspe-L-Pro-(NLys-Nspe2)-NH2] (H-[Nlys][Nspe][Nspe][Nlys][Nspe][Nspe][Nlys][Nspe]P[Nlys][Nspe][Nspe]-NH2) | 165 | > 200 | – | 8 (≈ 4.56 µM) | 128 (≈ 72.9 µM) | 2 (≈ 1.14 µM) | 8 (≈ 4.56 µM) | 32 (≈ 18.2 µM) | 32 (≈ 18.2 µM) | 32 (≈ 18.2 µM) | 12.5 (≈ 21.9 µg/mL) | 8 (≈ 4.56 µM) | 32 (≈ 18.2 µM) | 2 (≈ 1.14 µM) | 16 (≈ 9.12 µM) | 2 (≈ 1.14 µM) | 8 (≈ 4.56 µM) | 16 (≈ 9.12 µM) | 8 (≈ 4.56 µM) | 8 (≈ 4.56 µM) | MIC (P. aeruginosa 9 (MDR)): 256 µg/mL (≈ 146 µM); MIC [5]: 16 µg/mL (≈ 9.12 µM); MIC [6]: 32 µg/mL (≈ 18.2 µM); MIC [7]: 64 µg/mL (≈ 36.5 µM) |
| C[C@@H](c1ccccc1)N(CC(N)=O)C(=O)CN(CCCCN)C(=O)CN(C(=O)CN(C(=O)CN(CCCCN)C(=O)CN(C(=O)CN(C(=O)CN(CCCCN)C(=O)CN(C(=O)CN(C(=O)CNCCCCN)[C@@H](C)c1ccccc1)[C@@H](C)c1ccccc1)[C@@H](C)c1ccccc1)[C@@H](C)c1ccccc1)[C@@H](C)c1ccccc1)[C@@H](C)c1ccccc1 [Peptoid 1_11mer, H-(NLys-Nspe-Nspe)3-NLys-Nspe-NH2] (H-[Nlys][Nspe][Nspe][Nlys][Nspe][Nspe][Nlys][Nspe][Nspe][Nlys][Nspe]-NH2) | 103 | > 200 | 11 | – | – | – | – | – | – | – | 6.3 (≈ 10.4 µg/mL) | – | – | – | – | – | – | – | – | – | – |

— paper PMC4744035, “In Vivo, In Vitro, and In Silico Characterization of Peptoids as Antimicrobial Agents” (PLoS ONE, 2016)
